Experimental data taken from patent publication US20260262655A1, “INHIBITION OF SEED GERMINATION USING A COMBINATION OF BIOLOGICAL AND CHEMICAL INHIBITORS OF ETHYLENE” (Verdesian Life Sciences U.S., LLC, priority 2023, published 2026).
Where “and” joins values, the source holds several entries; their conditions need not be identical. Equal values may be shown once.

Key:
Format in all cases: in vivo
[1] = tested on: Cheatgrass, Bromus tectorum; assay: Petri dish seed germination test on cheatgrass, with Colby analysis; conditions: for %_Germ—14DAP: Petri Dish Run 1, germination at day 14; for %_Germ11DAP: Petri Dish Run 2, germination at day 11, repetitions R1-R3; for %_Germ_8DAP: germination at day 8, Run1 R0 and Run2 R1-R3
Procedure: (§1) Place 10 seeds on moistened filter paper in 100 mm petri dishes, with three petri dishes per treatment. Using a pipette, apply 0.01 mL of the solution (water for controls, Pseudomonas for treated) evenly over the top surface of each seed. For the ethylene inhibitor treatment, place a small aluminum weigh boat containing lmL inhibitor solution in the petri dish. Ethylene inhibitor solution should be replaced daily. Cover seeds with another sheet of moistened filter paper before closing the petri dish. As needed, moisten the filter paper throughout the experiment with 1 mL of water at a time. Allow plants to germinate and grow for 11 days, removing the filter paper on day 5. Record the number of seeds germinated each day. Image analysis may be used at the end of the experiment to record total root and shoot growth.
One species: Cheatgrass, Bromus tectorum
(§2) Three timings of Pseudomonas fluorescens strain D7 application: 0, 3, and 7 days after planting
(§3) Four seed treatments: water (control), Pseudomonas fluorescens strain D7, 1-MCP, Pseudomonas fluorescens strain D7 and 1-MCP combination
Run 1: 12 seeds/dish, 1 petri dish/treatment combo
Run 2: 10 seeds/dish, 3 petri dishes/treatment combo
A Colby Analysis was carried out for the data obtained in Example 2. The first data set is shown in Table 1 below, where cheatgrass (Bromus tectorum) was treated with Pseudomonas fluorescens strain D7 (D7) and 1-methylcyclopropene (1-MCP) alone or in combination at days 0, 3, and 7 of the treatment period. The percentage of germination was then determined at day 14 of the treatment period.
The Colby equation is a standard method for determining the presence of synergy. The Colby equation is as follows:
[formula] • wherein X and Y are the effects of the active agents (e.g., Pseudomonas fluorescens strain D7 (D7) and 1-methylcyclopropene (1-MCP)) applied alone (expressed as % of control).
The standard Colby equation interpretation is: If Observed Value is greater than the Expected Value, synergy exists. However, based on the goal of reducing germination in this study, the appropriate interpretation here is: If the Observed Value is less than the Expected Value, synergy.

Tall Fescue = assay: Petri dish seed germination test on Tall Fescue; conditions: Tall Fescue seeds
Procedure: as §1, with “1 mL” for “lmL”
(§4) Two species: Tall Fescue and Kentucky Bluegrass
as §2, §3
(§5) Twelve seeds/petri dish (TF), 40 seeds/petri dish (KB)×3 petri dishes/treatment combination

Kentucky Bluegrass = assay: Petri dish seed germination test on Kentucky Bluegrass; conditions: Kentucky Bluegrass seeds
Procedure: as §1, with “1 mL” for “lmL”
as §4, §2, §3, §5

[2] = Petri Dish Run 2 at Day 11, treatment Day 0, mean of repetitions
[3] = Petri Dish Run 2 at Day 11, treatment Day 3, mean of repetitions
[4] = Petri Dish Run 2 at Day 11, treatment Day 7, mean of repetitions
[5] = treatment Day 0, day 8, mean of Run1 and Run2 repetitions
[6] = treatment Day 3, day 8, mean of Run1 and Run2 repetitions
[7] = treatment Day 7, day 8, mean of Run1 and Run2 repetitions

Compound	%_Germ—14DAP ([1]; treatment Day 0)	%_Germ—14DAP ([1]; treatment Day 3)	%_Germ—14DAP ([1]; treatment Day 7)	Day 8% Germ Mean [1, 2]	Day 8% Germ Mean [1, 3]	Day 8% Germ Mean [1, 4]	Day 8% Germ Mean [1, 5]	Day 8% Germ Mean [1, 6]	Day 8% Germ Mean [1, 7]	further results
CC1=CC1 [1-MCP, 1-methylcyclopropene, reference compound]	75.00%	25.00%	100.00%	86.67%	83.33%	83.33%	81.25%	61.25%	75.83%	%_Germ11DAP ([1]; treatment Day 0, listed as 1-MCP alone): 80% and 90%; %_Germ11DAP ([1]; treatment Day 3, listed as 1-MCP alone): 80% and 90%; %_Germ11DAP ([1]; treatment Day 7, listed as 1-MCP alone): 100% and 70% and 80%; %_Germ_8DAP ([1]; treatment Day 0, listed as MCP): 75.00% and 80.0% and 90.0%; %_Germ_8DAP ([1]; treatment Day 7, listed as MCP): 83.33% and 90.0% and 60.0% and 70.0%
Pseudomonas fluorescens strain D7	58.33%	83.33%	75.00%	56.67%	76.67%	73.33%	31.67%	73.33%	65.00%	%_Germ11DAP ([1]; treatment Day 0, listed as D7 Alone): 60% and 50%; %_Germ11DAP ([1]; treatment Day 3, listed as D7 Alone): 100% and 60% and 70%; %_Germ11DAP ([1]; treatment Day 7, listed as D7 Alone): 90% and 60% and 70%; influence of application time on germination outcomes ([1]; application 0, 3 or 7 days after planting): early application being the most effective; %_Germ_8DAP ([1]; treatment Day 3): 83.33% and 100.0% and 60.0% and 50.0%; %_Germ_8DAP ([1]; treatment Day 7): 50.00% and 80.0% and 60.0% and 70.0%; effect on germination (Tall Fescue): did not affect germination; effect on germination (Kentucky Bluegrass): did not affect germination
